Test results as given in ChEMBL document CHEMBL3137667, “[Drug-induced liver injury; fourteenth updated edition of the bibliographic database of liver injuries and related drugs]” (Gastroenterol Clin Biol, 2004).

How the values were obtained:
[1] = human
[2] = human, serum
[3] = human; remark: listed apart in the source
[4] = Highest frequency of acute liver toxicity observed during clinical trials, expressed as a percentage. [column '% AIGUE' in source]; conditions: human
[5] = Highest frequency of moderate liver toxicity observed during clinical trials, expressed as a percentage. [column '% BIOL' in source]; conditions: human
[6] = human, serum, 4383 h
[7] = human; remark: listed apart in the source
[8] = human; remark: listed apart in the source
[9] = human, serum; remark: listed apart in the source
[10] = human; remark: listed apart in the source
[11] = human; remark: listed apart in the source
[12] = human; remark: listed apart in the source
[13] = human; remark: listed apart in the source
[14] = human; remark: listed apart in the source
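Throughout, for Hepatotoxicity (association with vascular disease): count of indexed literature references reporting vascular liver injury in humans, e.g. peliosis hepatitis, hepatic veno-occlusive disease or Budd-Chiari syndrome.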
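Throughout, for Hepatotoxicity (benign tumour): value is a count of indexed literature references citing a benign tumour confirmed by histopathology.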
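Throughout, for Hepatotoxicity (choleostasis): human cholestatic liver injury, shown by histopathology or by peak ALT or AST elevation over alkaline phosphatase ratio below 2, value counts indexed literature reports.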
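Throughout, for Hepatotoxicity (chronic liver disease): chronic liver injury confirmed by histopathology or persistently raised serum aminotransferase activity beyond 6 months, value given as the count of indexed literature references.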
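Throughout, for Hepatotoxicity (cirrhosis): value is a count of indexed literature references reporting cirrhosis confirmed by histopathology.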
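Throughout, for Hepatotoxicity (cytolytic): human cytolytic liver injury, shown by histopathology or by a ratio above 5 of peak ALT or AST elevation to alkaline phosphatase elevation, value counts indexed references.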
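Throughout, for Hepatotoxicity (granulomatous hepatitis): value is a count of indexed literature references reporting granulomatous liver disease confirmed by histopathology.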
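Throughout, for Hepatotoxicity (malignant tumour): malignant tumour confirmed by histopathology, value gives the count of indexed literature references reporting it.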
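Throughout, for Hepatotoxicity (severe hepatitis): human clinical data: severe hepatitis, meaning potentially life-threatening liver failure or clinically observed cases, the value counts how many indexed literature references report it.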
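Throughout, for Hepatotoxicity (steatosis): steatosis confirmed by histopathology, value is the count of indexed references.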

Molecule	Hepatotoxicity (severe hepatitis) [1]	Hepatotoxicity (moderate) [2]	Hepatotoxicity (cytolytic) [3]	Hepatotoxicity (acute) [4] [%]	Hepatotoxicity (moderate) [5] [%]	Hepatotoxicity (chronic liver disease) [6]	Hepatotoxicity (malignant tumour) [7]	Hepatotoxicity (cirrhosis) [8]	Hepatotoxicity (acute) [9]	Hepatotoxicity (steatosis) [10]	Hepatotoxicity (benign tumour) [11]	Hepatotoxicity (choleostasis) [12]	Hepatotoxicity (granulomatous hepatitis) [13]	Hepatotoxicity (association with vascular disease) [14]	Hepatotoxicity (severe hepatitis) ([1]; Liver)	Hepatotoxicity (cytolytic) ([3]; Liver)	Hepatotoxicity (acute) ([4]; Liver) [%]	Hepatotoxicity (moderate) ([5]; Liver) [%]	Hepatotoxicity (choleostasis) ([12]; Liver)	Hepatotoxicity (granulomatous hepatitis) ([13]; Liver)
CC1(C)S[C@@H]2[C@H](NC(=O)[C@H](N)c3ccccc3)C(=O)N2[C@H]1C(=O)OCOC(=O)[C@@H]1N2C(=O)C[C@H]2S(=O)(=O)C1(C)C [SULTAMICILLIN]	0	61	0	0.2	43	0	0	0	1	0	0	1	0	0						
O=C(O)CN1C(=O)c2cccc3cccc(c23)C1=O [ALRESTATIN]	0	2	0	0	11.1	0	0	0	0	0	0	0	0	0						
CCCCN(CCCC)CCC(O)c1cc2c(Cl)cc(Cl)cc2c2cc(C(F)(F)F)ccc12 (stereo not given) [HALOFANTRINE]	0	8	0	0	29	0	0	0	0	0	0	0	0	0						
CC(C)(Oc1ccc(Cl)cc1)C(=O)OCCOC(=O)c1cccnc1 [ETOFIBRATE]	0	1	0	0	0	0	0	0	0	0	0	0	0	0						
O=C(O)Cc1nn(Cc2nc3cc(C(F)(F)F)ccc3s2)c(=O)c2ccccc12 [ZOPOLRESTAT]	0	1	0	0	11.6	0	0	0	0	0	0	0	0	0						
POLOXAMER	0	1	0	0	7.7	0	0	0	0	0	0	0	0	0						
CNc1nc(N(C)C)nc(N(C)C)n1 [PENTAMETHYL MELAMINE]	0	1	0	0	31	0	0	0	0	0	0	0	0	0						
SODIUM NITROPRUSSIDE	0	1	0	0	41	0	0	0	0	0	0	0	0	0						
Cc1c(N)nc([C@@H](CC(N)=O)NC[C@@H](N)C(N)=O)nc1C(=O)N[C@@H](C(=O)N[C@@H](C)[C@H](O)[C@@H](C)C(=O)N[C@H](C(=O)NCCc1nc(-c2nc(C(=O)NCCCN(C)CCCN(Cc3ccc(OCc4ccccc4)c(OCc4ccccc4)c3)Cc3ccc(OCc4ccccc4)c(OCc4ccccc4)c3)cs2)cs1)[C@@H](C)O)C(O[C@H]1O[C@@H](CO)[C@H](O)[C@@H](O)[C@H]1O[C@H]1O[C@@H](CO)[C@@H](O)[C@H](OC(N)=O)[C@@H]1O)c1c[nH]cn1 (stereo not given in full)	0	1	0	0	23.5	0	0	0	0	0	0	0	0	0						
CO[C@@H](/C(C)=C/C=C/C(C)=C/c1coc(C)n1)[C@@H](C)[C@@H]1C[C@H](O)[C@@]2(C)O[C@@H]2/C=C/[C@@H](C)[C@H]2C[C@H](CC(=O)O2)C[C@@H]2O[C@H]2C(=O)O1 [RHIZOXIN]	0	1	0	0	7.3	0	0	0	0	0	0	0	0	0						
Clc1ccc(C(Cn2ccnc2)OCc2ccsc2Cl)c(Cl)c1 (stereo not given) [TIOCONAZOLE]		1				0	0	0	0	0	0			0	0	0	0	5.3	0	0
CC(C)(N)C(=O)N[C@H](COCc1ccccc1)C(=O)N1CCC2(CC1)CN(S(C)(=O)=O)c1ccccc12 [IBUTAMOREN]	0	1	0	0	21.4	0	0	0	0	0	0	0	0	0						
CO/N=C(\C(=O)N[C@@H]1C(=O)N2C(C(=O)O)=C(CSc3cnns3)CS[C@H]12)c1csc(N)n1 [CEFUZONAM]	0	19	0	0	14.3	0	0	0	0	0	0	0	0	0						
CN[C@@H]1[C@@H](O)[C@@H](O[C@@H]2[C@@H](O)[C@H](O[C@H]3OC(CN)=CC[C@H]3N)[C@@H](N)C[C@H]2N)OC[C@]1(C)O [SISOMICIN]	0	2	0	0	5.7	0	0	0	0	0	0	0	0	0						
CN1CCc2cccc3c2[C@H]1Cc1ccc(O)c(O)c1-3 [APOMORPHINE]	0	1	0	0	0	0	0	0	0	0	0	0	0	0						
